26 molecules from patent US9296698B2, “Amino heteroaryl compounds as beta-secretase modulators and methods of use” (Amgen Inc., priority 2009, dated 2016) can be followed below.

Test [1] concerns the target BACE 1 (Beta Secretase enzyme) (Homo sapiens, UniProt P56817). Put plainly: In vitro enzymatic BACE FRET assay. In kind it is biochemical. As for the experimental part:
In Vitro Enzymatic BACE FRET (Fluorescence Resonance Energy Transfer) Assay (Enzyme Assay Data in Table 1)
The assay buffer used in this screen is 0.05 M acetate, pH 4.2, 10% DMSO final, 100 uM genapol (which is a nonionic detergent, below its Critical Micelle Concentration). […] The assay is effectively started by the addition of FRET substrate (50 nM) and the combination is incubated for one hour. The FRET assay is terminated with by addition of Tris buffer, which raises the pH to neutrality, and the fluorescence is determined. The FRET substrate is a peptide with commercially available fluorophore and quencher, on opposite sides of the BACE cleavage site.

Test [2] concerns Aβ40 in conditioned medium of cells stably expressing Amyloid Precursor Protein (APP). Description: In vitro BACE cell-based assay (HEK cell assay), Aβ40 sandwich ELISA. Particulars: IC50 range symbols, Table 1, Aβ40, 24 h incubation, read-out: HEK cell assay. As to the method:
In Vitro BACE Cell-Based Assay:
The cell-based assay measures inhibition or reduction of Aβ40 in conditioned medium of test compound treated cells expressing amyloid precursor protein.
Cells stably expressing Amyloid Precursor Protein (APP) were plated at a density of 40K cells/well in 96 well plates (Costar). The cells were cultivated for 24 hours at 37° C. and 5% CO2 in DMEM supplemented with 10% FBS. The test compounds were then added to cells in 10-point dose response concentrations with the starting concentration being either 100 μM or 10 μM. The compounds were diluted from stock solutions in DMSO and the final DMSO concentration of the test compounds on cells was 0.1%. After 24 h of incubation with the test compounds the supernatant conditioned media was collected and the Aβ 40 levels were determined using a sandwich ELISA. The IC50 of the compound was calculated from the percent of control or percent inhibition of Aβ 40 as a function of the concentration of the test compound.
The sandwich ELISA to detect Aβ 40 was performed in 96 well microtiter plates, which were pre-treated with goat anti-rabbit IgG (Pierce). The capture and detecting antibody pair that were used to detect Aβ 40 from cell supernatants were affinity purified pAb40 (Biosource) and biotinylated 6E10 (Signet Labs Inc.), respectively. The optimal concentration for the pAb40 antibody was 3 μg/ml in Superblock/TBS (Pierce) that was supplemented with 0.05% Tween 20 (Sigma).
Cellular supernatants were incubated with the capture antibody for 3 h at 4° C., followed by 3 wash steps in TBS-tween (0.05%). The detecting antibody incubation was for 2 h at 4° C., again followed by the wash steps as described previously. The final readout of the ELISA is Time-Resolved Fluorescence (counts per minute) using Delfia reagents Streptavidin-Europium and Enhancement solutions (Perkin Elmer) and the Victor 2 multilabel counter (Perkin Elmer).
For orientation: An ELISA detects its analyte on a solid surface through an enzyme-linked reagent.

[3] abbreviates: IC50 range symbols, Table 1, read-out: BACE 1 FRET assay.
Setting [4] is: bound stated, read-out: IC50 value in the FRET BACE enzyme assay.

Like-named read-outs stand apart in the source and are kept apart here.

BACE 1 (Beta Secretase enzyme), sequence (P56817 46-501, species assumed): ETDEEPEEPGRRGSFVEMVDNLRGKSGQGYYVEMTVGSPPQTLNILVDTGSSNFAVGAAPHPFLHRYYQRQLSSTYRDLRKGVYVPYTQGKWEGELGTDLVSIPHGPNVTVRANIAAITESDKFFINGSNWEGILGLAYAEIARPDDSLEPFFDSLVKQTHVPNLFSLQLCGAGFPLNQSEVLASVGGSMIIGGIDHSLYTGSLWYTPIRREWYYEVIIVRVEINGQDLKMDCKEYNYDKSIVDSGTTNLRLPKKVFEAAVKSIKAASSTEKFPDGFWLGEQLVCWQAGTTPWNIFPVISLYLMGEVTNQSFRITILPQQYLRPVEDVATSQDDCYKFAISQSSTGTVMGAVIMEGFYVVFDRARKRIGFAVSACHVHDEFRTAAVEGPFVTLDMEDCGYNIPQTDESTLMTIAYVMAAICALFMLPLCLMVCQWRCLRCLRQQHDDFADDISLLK

As to `Cc1cccnc1-c1ccc2nc(N)c(CC(C)C(=O)NCCC(F)(F)F)cc2c1` (stereo not drawn) [Example 112, 3-(2-amino-6-(3-methylpyridin-2-yl)quinolin-3-yl)-2-methyl-N-(3,3,3-trifluoropropyl)propanamide], the IC50 in test [1] (setting [3]) is under 500 nM; in test [2] (Homo sapiens, HEK293, 24 h), 500 to 1000 nM.

For “3-(3-amino-7-o-tolylnaphthalen-2-yl)-N-(1-(pyridin-2-yl)ethyl)propanamide [Example 56]”, the results for the IC50 in test [1] (setting [3]) and in test [2] were under 500 nM and 1000 to 5000 nM, respectively.

Take “3-(3-amino-7-o-tolylnaphthalen-2-yl)-N-((S)-1-cyclohexylethyl)propanamide [Example 35]”: the IC50 in test [1] (setting [3]) was under 500 nM; in test [2], over 5000 nM.

For `Cc1ccccc1-c1ccc2nc(N)c(CC(C)C(=O)Nc3ccccc3)cc2c1` (stereo not drawn) [Example 51, 3-(2-amino-6-o-tolylquinolin-3-yl)-2-methyl-N-phenylpropanamide], the IC50 in test [1] (setting [3]) was under 500 nM; in test [2] (Homo sapiens, HEK293, 24 h), 1000 to 5000 nM.

On to “3-(3-amino-7-o-tolylnaphthalen-2-yl)-N-(2-fluorophenyl)propanamide [Example 28]”, for which the IC50 lay within 500 to 1000 nM in test [1] (setting [3]) and 1000 to 5000 nM in test [2].

As to `Cc1ccc(CNC(=O)CCc2cc3cc(-c4ccccc4C)ccc3nc2N)c(F)c1` [Example 68, N-(2-fluoro-4-methylbenzyl)-3-(2-amino-6-o-tolylquinolin-3-yl)propanamide], the IC50 in test [1] (setting [3]) was 1000 to 5000 nM; in test [2] (Homo sapiens, HEK293, 24 h), over 5000 nM.

For `CC(Cc1cc2cc(-c3ccccc3C(=O)C3CCCCC3)ccc2nc1N)C(=O)NC1CCOC(C)(C)C1` (stereo not drawn) [Example 147, 3-(2-amino-6-(2-(cyclohexylcarbonyl)phenyl)-3-quinolinyl)-N-(2,2-dimethyltetrahydro-2H-pyran-4-yl)-2-methylpropanamide], the IC50 was under 500 nM in test [1] (setting [3]) and under 500 nM in test [2] (Homo sapiens, HEK293, 24 h).

Take `Cc1ccccc1-c1ccc2nc(N)c(CCC(=O)NC3CCCN(C)C3)cc2c1` (stereo not drawn) [Example 39, 3-(2-amino-6-o-tolylquinolin-3-yl)-N-(1-methylpiperidin-3-yl)propanamide]: the IC50 in test [1] (setting [3]) lay within 1000 to 5000 nM; in test [2] (Homo sapiens, HEK293, 24 h), 1000 to 5000 nM.

Take `COc1ccccc1C(C)NC(=O)CCc1cc2cc(-c3ccccc3C)ccc2nc1N` (stereo not drawn) [Example 105, 3-(2-amino-6-o-tolylquinolin-3-yl)-N-(1-(2-methoxyphenyl)ethyl)propanamide]: the IC50 was under 500 nM in test [1] (setting [3]) and 1000 to 5000 nM in test [2] (Homo sapiens, HEK293, 24 h).

As for `Cc1ccccc1-c1ccc2nc(N)c(CCC(=O)NCc3ncco3)cc2c1` [Example 67, 3-(2-amino-6-o-tolylquinolin-3-yl)-N-(oxazol-2-ylmethyl)propanamide], the IC50 in test [1] (setting [3]) was under 500 nM; in test [2] (Homo sapiens, HEK293, 24 h), 1000 to 5000 nM.

Consider `Cc1ncccc1-c1ccc2nc(N)c(CCC(=O)NCC3CCCCC3)cc2c1` [Example 38, 3-(2-amino-6-(2-methylpyridin-3-yl)quinolin-3-yl)-N-(cyclohexylmethyl)propanamide], for which the IC50 in test [1] (setting [3]) was 500 to 1000 nM; in test [2] (Homo sapiens, HEK293, 24 h), over 5000 nM.

Consider `Cc1ccncc1-c1ccc2nc(N)c(CCC(=O)NCC3CCCCC3)cc2c1` [Example 46, 3-(2-amino-6-(4-methylpyridin-3-yl)quinolin-3-yl)-N-(cyclohexylmethyl)propanamide], for which the IC50 in test [1] (setting [3]) is 1000 to 5000 nM; in test [2] (Homo sapiens, HEK293, 24 h) it was over 5000 nM.

As to “3-(2-amino-6-o-tolylquinolin-3-yl)-N-(tetrahydro-2H-pyran-4-yl)propanamide [Example 16]”, the IC50 in test [1] (setting [3]) and in test [2] was 1000 to 5000 nM each time.

On to `Cc1nccn1-c1ccc2nc(N)c(CCC(=O)NCC3CCCCC3)cc2c1` [Example 4, 3-(2-amino-6-(2-methyl-1H-imidazol-1-yl)quinolin-3-yl)-N-(cyclohexylmethyl)propanamide], for which the IC50 in test [1] (setting [3]) was over 5000 nM; in test [2] (Homo sapiens, HEK293, 24 h), over 5000 nM.

Consider `Nc1nc2ccc(-c3ccccc3Cl)cc2cc1CCC(=O)NCC1CCCCC1` [Example 3, 3-(2-amino-6-(2-chlorophenyl)quinolin-3-yl)-N-(cyclohexylmethyl)propanamide], for which the IC50 in test [1] (setting [3]) is under 500 nM; in test [2] (Homo sapiens, HEK293, 24 h), 1000 to 5000 nM.

Take “3-(3-amino-7-o-tolylnaphthalen-2-yl)-2-methyl-N-(pyridin-3-ylmethyl)propanamide [Example 69]”: the IC50 in test [1] (setting [3]) was under 500 nM; in test [2], 500 to 1000 nM.

On to `CNC(=O)C(C)Cc1cc2cc(-c3ccccc3C(=O)C3CCCCC3)ccc2nc1N` (stereo not drawn) [Example 157, 3-(2-amino-6-(2-(cyclohexanecarbonyl)phenyl)quinolin-3-yl)-N,2-dimethylpropanamide], for which the IC50 in test [1] (setting [3]) is under 500 nM; in test [2] (Homo sapiens, HEK293, 24 h), 500 to 1000 nM.

On to `Cc1cccnc1-c1ccc2nc(N)c(CC(C)C(=O)NCC3CCOCC3)cc2c1` (stereo not drawn) [Example 88, 3-(2-amino-6-(3-methylpyridin-2-yl)quinolin-3-yl)-2-methyl-N-((tetrahydro-2H-pyran-4-yl)methyl)propanamide], for which the IC50 is under 500 nM in test [1] (setting [3]) and 500 to 1000 nM in test [2] (Homo sapiens, HEK293, 24 h).

As to `Cc1cccnc1-c1ccc2nc(N)c(CCC(=O)N[C@H](C)c3ccccc3OC(F)F)cc2c1` [Example 133, (R)-3-(2-amino-6-(3-methylpyridin-2-yl)quinolin-3-yl)-N-(1-(2-(difluoromethoxy)phenyl)ethyl)propanamide], the IC50 in test [1] (setting [3]) is 1000 to 5000 nM; in test [2] (Homo sapiens, HEK293, 24 h), over 5000 nM.

With `COCCNC(=O)CCc1cc2cc(-c3ccccc3C)ccc2nc1N` [Example 18, 3-(2-amino-6-o-tolylquinolin-3-yl)-N-(2-methoxyethyl)propanamide], the IC50 was under 500 nM in test [1] (setting [3]) and over 5000 nM in test [2] (Homo sapiens, HEK293, 24 h).

Take `Cc1cccnc1-c1cc2cc(CC(C)C(=O)NCCC(C)(C)C)c(N)nc2cc1F` (stereo not drawn) [Example 98, 3-(2-amino-7-fluoro-6-(3-methyl-2-pyridinyl)-3-quinolinyl)-N-(3,3-dimethylbutyl)-2-methylpropanamide]: the IC50 is under 500 nM in test [1] (setting [3]); under 50 nM in test [1] (setting [4]); under 500 nM in test [2] (Homo sapiens, HEK293, 24 h).

Consider `Cc1ccc(NC(=O)CCc2cc3cc(-c4ccccc4C)ccc3nc2N)c(F)c1` [Example 53, 3-(2-amino-6-o-tolylquinolin-3-yl)-N-(2-fluoro-4-methylphenyl)propanamide], for which the IC50 in test [1] (setting [3]) was in the range of 1000 to 5000 nM; in test [2] (Homo sapiens, HEK293, 24 h), 1000 to 5000 nM.

Consider `Cc1ccccc1-c1ccc2nc(N)c(CCC(=O)NCC3CCCCC3)nc2c1` [Example 140, 3-(3-amino-7-(2-methylphenyl)-2-quinoxalinyl)-N-(cyclohexylmethyl)propanamide], for which the IC50 in test [1] (setting [3]) is under 500 nM; in test [2] (Homo sapiens, HEK293, 24 h) it was 1000 to 5000 nM.

In the case of `CC(Cc1cc2cc(-c3cccc(Cl)c3Cl)ccc2nc1N)C(=O)NC1CCOC(C)(C)C1` (stereo not drawn) [Example 159, 3-(2-amino-6-(2,3-dichlorophenyl)quinolin-3-yl)-N-(2,2-dimethyltetrahydro-2H-pyran-4-yl)-2-methylpropanamide], the IC50 in test [1] (setting [3]) is under 500 nM; in test [2] (Homo sapiens, HEK293, 24 h) it was under 500 nM.

Turning to `CC(=O)c1ccccc1-c1ccc2nc(N)c(CC(C)C(=O)Nc3ccccc3)cc2c1` (stereo not drawn) [Example 152, 3-(6-(2-acetylphenyl)-2-aminoquinolin-3-yl)-2-methyl-N-phenylpropanamide], the IC50 was under 500 nM in test [1] (setting [3]) and under 500 nM in test [2] (Homo sapiens, HEK293, 24 h).

On to `Cc1ccccc1-c1cc2cc(CCC(=O)NCC3CCCCC3)c(N)nc2cc1F` [Example 96, 3-(2-amino-7-fluoro-6-(2-methylphenyl)-3-quinolinyl)-N-(cyclohexylmethyl)propanamide], for which the IC50 was under 500 nM in test [1] (setting [3]); under 50 nM in test [1] (setting [4]); 1000 to 5000 nM in test [2] (Homo sapiens, HEK293, 24 h).
